Test results reported in ChEMBL document CHEMBL4507288 (2021).

What was measured:
Details in all cases: Compound concentration 1000.0 nM
[1] = biological target: Serine/threonine-protein kinase WNK1 (Homo sapiens) (UniProt Q9H4A3)
[2] = biological target: Mitogen-activated protein kinase kinase kinase 20 (Homo sapiens) (UniProt Q9NYL2)
[3] = biological target: Interleukin-1 receptor-associated kinase 4 (Homo sapiens) (UniProt Q9NWZ3)
[4] = biological target: Testis-specific serine/threonine-protein kinase 3 (Homo sapiens) (UniProt Q96PN8)
[5] = biological target: Tyrosine-protein kinase CSK (Homo sapiens) (UniProt P41240)
[6] = biological target: Calcium-dependent protein kinase 1 (Plasmodium falciparum) (UniProt P62344)
[7] = biological target: Vascular endothelial growth factor receptor 2 (Homo sapiens) (UniProt P35968)
[8] = biological target: Proto-oncogene tyrosine-protein kinase Src (Homo sapiens) (UniProt P12931)
Proto-oncogene tyrosine-protein kinase Src (Homo sapiens), sequence (P12931 2-536 limits assumed): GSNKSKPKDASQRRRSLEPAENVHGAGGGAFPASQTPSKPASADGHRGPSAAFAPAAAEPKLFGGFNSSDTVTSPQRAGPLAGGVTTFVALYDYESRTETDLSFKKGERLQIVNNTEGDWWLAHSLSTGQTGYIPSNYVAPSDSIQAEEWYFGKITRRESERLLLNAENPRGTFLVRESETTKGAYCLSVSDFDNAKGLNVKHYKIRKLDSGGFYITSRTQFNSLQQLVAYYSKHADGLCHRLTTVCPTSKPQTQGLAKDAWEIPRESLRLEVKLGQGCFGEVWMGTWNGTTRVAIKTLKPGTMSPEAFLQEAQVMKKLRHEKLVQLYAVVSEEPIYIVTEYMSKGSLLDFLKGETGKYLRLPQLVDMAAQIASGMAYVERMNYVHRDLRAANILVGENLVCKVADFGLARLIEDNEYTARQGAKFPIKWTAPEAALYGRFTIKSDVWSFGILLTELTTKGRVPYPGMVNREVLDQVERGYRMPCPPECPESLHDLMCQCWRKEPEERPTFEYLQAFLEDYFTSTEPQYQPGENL

[9] = biological target: Serine/threonine-protein kinase MAK (Homo sapiens) (UniProt P20794)
[10] = biological target: Mitogen-activated protein kinase 3 (Homo sapiens) (UniProt P27361)
[11] = biological target: Mitogen-activated protein kinase kinase kinase 11 (Homo sapiens) (UniProt Q16584)
[12] = test system: Phosphatidylinositol 4,5-bisphosphate 3-kinase catalytic subunit alpha isoform (Homo sapiens), P42336 [Q546K]
[13] = biological target: Serine/threonine-protein kinase DCLK3 (Homo sapiens) (UniProt Q9C098)
[14] = biological target: Citron Rho-interacting kinase (Homo sapiens) (UniProt O14578)
[15] = biological target: Dual specificity protein kinase CLK4 (Homo sapiens) (UniProt Q9HAZ1)
[16] = biological target: Dual specificity protein kinase CLK3 (Homo sapiens) (UniProt P49761)
Dual specificity protein kinase CLK3 (Homo sapiens), sequence (P49761 whole entry, looked up): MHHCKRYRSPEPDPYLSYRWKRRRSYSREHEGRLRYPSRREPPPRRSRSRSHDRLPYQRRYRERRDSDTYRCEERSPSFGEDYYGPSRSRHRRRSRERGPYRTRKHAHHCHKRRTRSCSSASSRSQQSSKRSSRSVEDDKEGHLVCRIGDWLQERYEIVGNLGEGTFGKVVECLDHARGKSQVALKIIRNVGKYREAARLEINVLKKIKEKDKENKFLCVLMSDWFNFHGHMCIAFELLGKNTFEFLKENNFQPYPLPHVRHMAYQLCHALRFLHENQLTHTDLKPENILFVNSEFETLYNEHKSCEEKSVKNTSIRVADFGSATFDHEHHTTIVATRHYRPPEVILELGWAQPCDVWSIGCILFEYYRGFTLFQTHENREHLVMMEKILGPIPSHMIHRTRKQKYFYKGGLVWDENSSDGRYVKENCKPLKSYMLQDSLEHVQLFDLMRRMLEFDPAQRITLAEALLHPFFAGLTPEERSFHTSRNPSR

[17] = biological target: Ephrin type-A receptor 3 (Homo sapiens) (UniProt P29320)
[18] = biological target: Serine/threonine-protein kinase D2 (Homo sapiens) (UniProt Q9BZL6)
[19] = biological target: Phosphatidylinositol 4,5-bisphosphate 3-kinase catalytic subunit delta isoform (Homo sapiens) (UniProt O00329)
[20] = test system: Mast/stem cell growth factor receptor Kit (Homo sapiens), P10721 [D816H]
[21] = biological target: Beta-adrenergic receptor kinase 1 (Homo sapiens) (UniProt P25098)
Beta-adrenergic receptor kinase 1 (Homo sapiens), sequence (P25098 whole entry): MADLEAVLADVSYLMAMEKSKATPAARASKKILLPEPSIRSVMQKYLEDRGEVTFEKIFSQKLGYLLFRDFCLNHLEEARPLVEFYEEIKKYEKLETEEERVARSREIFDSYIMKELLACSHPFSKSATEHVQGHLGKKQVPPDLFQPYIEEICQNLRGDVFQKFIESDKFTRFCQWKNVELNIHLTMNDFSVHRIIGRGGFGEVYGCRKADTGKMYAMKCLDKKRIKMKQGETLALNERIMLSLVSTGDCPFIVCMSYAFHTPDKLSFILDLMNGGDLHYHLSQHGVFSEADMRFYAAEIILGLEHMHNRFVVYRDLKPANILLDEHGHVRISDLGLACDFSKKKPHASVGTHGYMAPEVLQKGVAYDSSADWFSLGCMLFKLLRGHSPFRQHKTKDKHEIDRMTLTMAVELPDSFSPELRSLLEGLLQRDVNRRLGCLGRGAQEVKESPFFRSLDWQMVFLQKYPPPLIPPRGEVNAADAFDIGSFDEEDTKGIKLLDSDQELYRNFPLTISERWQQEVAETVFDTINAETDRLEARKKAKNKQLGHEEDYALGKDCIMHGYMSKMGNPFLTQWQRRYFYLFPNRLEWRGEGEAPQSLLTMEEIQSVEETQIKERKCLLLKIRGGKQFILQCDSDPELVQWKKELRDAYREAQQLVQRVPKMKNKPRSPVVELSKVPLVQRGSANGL

[22] = biological target: Mitogen-activated protein kinase 14 (Homo sapiens) (UniProt Q16539)
[23] = biological target: Receptor tyrosine-protein kinase erbB-2 (Homo sapiens) (UniProt P04626)
Receptor tyrosine-protein kinase erbB-2 (Homo sapiens), sequence (P04626 whole entry): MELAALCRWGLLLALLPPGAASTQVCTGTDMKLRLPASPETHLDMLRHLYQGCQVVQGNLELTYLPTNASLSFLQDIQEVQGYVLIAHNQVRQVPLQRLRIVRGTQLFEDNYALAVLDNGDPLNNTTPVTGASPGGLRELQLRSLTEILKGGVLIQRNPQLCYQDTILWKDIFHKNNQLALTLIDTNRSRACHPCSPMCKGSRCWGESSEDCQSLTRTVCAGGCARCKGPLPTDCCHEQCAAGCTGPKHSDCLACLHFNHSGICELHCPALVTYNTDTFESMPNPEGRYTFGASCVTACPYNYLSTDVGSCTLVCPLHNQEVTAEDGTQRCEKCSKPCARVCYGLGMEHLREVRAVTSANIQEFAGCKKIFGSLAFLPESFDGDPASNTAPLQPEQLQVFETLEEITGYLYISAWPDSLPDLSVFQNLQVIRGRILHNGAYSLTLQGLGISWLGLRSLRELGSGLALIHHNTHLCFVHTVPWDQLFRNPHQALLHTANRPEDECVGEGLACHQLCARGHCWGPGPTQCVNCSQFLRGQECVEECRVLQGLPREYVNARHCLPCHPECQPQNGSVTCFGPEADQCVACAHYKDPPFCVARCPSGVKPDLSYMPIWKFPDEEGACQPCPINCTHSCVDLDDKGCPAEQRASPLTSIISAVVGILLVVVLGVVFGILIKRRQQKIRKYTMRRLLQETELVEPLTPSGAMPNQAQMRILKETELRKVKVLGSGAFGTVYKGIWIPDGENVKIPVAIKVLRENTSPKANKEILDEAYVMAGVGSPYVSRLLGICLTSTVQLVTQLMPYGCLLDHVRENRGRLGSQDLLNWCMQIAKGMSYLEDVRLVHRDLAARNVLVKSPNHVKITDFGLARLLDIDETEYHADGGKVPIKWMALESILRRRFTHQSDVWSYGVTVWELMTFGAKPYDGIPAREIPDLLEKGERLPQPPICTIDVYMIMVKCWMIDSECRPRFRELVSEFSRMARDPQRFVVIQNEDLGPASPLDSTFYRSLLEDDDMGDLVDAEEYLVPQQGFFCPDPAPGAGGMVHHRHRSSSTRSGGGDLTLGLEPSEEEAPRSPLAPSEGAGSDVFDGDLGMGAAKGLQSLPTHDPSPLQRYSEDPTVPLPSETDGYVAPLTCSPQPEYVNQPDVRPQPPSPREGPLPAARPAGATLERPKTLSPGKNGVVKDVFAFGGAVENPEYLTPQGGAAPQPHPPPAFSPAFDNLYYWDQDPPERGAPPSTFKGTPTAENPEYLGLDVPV

[24] = biological target: Ephrin type-A receptor 4 (Homo sapiens) (UniProt P54764)
[25] = biological target: Serine/threonine-protein kinase 4 (Homo sapiens) (UniProt Q13043)
[26] = biological target: Tyrosine-protein kinase Fer (Homo sapiens) (UniProt P16591)
[27] = biological target: Casein kinase I isoform gamma-1 (Homo sapiens) (UniProt Q9HCP0)
[28] = biological target: Serine/threonine-protein kinase ICK (Homo sapiens) (UniProt Q9UPZ9)
[29] = biological target: Calcium/calmodulin-dependent protein kinase type 1D (Homo sapiens) (UniProt Q8IU85)
Calcium/calmodulin-dependent protein kinase type 1D (Homo sapiens), sequence (Q8IU85 whole entry, looked up): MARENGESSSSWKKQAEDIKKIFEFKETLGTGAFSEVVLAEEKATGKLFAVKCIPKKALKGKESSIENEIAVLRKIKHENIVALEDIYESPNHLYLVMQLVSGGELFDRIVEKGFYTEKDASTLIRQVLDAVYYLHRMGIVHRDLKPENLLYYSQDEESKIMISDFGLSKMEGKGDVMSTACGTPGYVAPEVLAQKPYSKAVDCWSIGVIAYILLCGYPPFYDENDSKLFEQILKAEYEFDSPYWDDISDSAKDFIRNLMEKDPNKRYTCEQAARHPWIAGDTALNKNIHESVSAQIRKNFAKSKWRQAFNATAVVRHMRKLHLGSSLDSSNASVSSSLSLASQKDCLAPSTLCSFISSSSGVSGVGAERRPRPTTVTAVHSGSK

[30] = biological target: Proto-oncogene tyrosine-protein kinase receptor Ret (Homo sapiens) (UniProt P07949)
Proto-oncogene tyrosine-protein kinase receptor Ret (Homo sapiens), sequence (P07949 whole entry): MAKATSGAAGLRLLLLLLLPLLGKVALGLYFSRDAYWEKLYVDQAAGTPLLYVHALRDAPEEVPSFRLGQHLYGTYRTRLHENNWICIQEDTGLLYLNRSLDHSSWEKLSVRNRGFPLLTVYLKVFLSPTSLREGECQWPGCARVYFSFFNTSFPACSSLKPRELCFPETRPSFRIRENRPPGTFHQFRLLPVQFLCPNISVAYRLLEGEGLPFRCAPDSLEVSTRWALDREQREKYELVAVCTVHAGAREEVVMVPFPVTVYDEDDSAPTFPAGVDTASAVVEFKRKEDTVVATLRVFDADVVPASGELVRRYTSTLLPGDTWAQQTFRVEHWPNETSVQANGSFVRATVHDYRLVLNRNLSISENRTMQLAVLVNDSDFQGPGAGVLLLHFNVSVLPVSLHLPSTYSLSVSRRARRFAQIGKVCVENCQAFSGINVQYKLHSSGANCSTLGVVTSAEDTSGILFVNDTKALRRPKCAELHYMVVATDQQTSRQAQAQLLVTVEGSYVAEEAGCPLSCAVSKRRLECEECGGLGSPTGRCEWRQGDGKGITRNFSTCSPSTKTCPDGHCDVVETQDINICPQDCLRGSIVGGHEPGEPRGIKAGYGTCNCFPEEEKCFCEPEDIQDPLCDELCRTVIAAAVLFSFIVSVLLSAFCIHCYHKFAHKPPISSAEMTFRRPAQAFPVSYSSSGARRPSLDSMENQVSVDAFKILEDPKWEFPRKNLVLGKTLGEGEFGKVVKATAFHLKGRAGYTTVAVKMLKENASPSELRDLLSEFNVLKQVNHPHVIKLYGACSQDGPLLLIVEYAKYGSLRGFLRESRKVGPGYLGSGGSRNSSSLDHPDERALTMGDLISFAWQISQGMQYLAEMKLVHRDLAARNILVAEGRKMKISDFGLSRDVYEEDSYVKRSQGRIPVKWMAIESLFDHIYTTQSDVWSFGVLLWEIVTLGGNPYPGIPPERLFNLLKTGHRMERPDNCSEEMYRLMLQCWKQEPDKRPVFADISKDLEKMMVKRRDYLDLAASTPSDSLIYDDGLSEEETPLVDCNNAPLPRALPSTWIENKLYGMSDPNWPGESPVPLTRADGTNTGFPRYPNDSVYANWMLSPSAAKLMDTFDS

[31] = biological target: Serine/threonine-protein kinase PAK 5 (Homo sapiens) (UniProt Q9P286)
[32] = biological target: Calcium/calmodulin-dependent protein kinase type II subunit gamma (Homo sapiens) (UniProt Q13555)
Calcium/calmodulin-dependent protein kinase type II subunit gamma (Homo sapiens), sequence (Q13555 whole entry): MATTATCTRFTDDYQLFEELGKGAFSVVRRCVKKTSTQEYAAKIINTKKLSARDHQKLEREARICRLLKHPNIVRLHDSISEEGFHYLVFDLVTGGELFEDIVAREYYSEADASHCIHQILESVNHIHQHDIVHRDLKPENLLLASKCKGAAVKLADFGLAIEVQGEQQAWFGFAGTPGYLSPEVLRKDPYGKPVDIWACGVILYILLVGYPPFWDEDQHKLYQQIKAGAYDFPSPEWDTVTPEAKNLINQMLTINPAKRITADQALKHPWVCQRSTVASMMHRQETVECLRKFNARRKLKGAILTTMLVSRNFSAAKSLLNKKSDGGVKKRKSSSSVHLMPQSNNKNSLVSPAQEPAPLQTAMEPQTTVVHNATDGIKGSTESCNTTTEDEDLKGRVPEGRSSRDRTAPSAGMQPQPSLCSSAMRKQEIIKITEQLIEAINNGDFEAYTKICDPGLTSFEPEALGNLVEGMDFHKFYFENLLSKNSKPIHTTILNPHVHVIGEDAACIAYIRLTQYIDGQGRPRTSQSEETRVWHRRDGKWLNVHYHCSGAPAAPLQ

[33] = biological target: Cyclin-dependent kinase-like 2 (Homo sapiens) (UniProt Q92772)
[34] = biological target: Calcium/calmodulin-dependent protein kinase type 1 (Homo sapiens) (UniProt Q14012)
[35] = biological target: Serine/threonine-protein kinase LATS1 (Homo sapiens) (UniProt O95835)

O=S(=O)(NC1CCC(c2cc(F)ccc2F)(S(=O)(=O)c2ccc(Cl)cc2)CC1)C(F)(F)F (stereo not given) [MRK-560]
residual activity [1]: 100% | residual activity [2]: 92% | residual activity [3]: 97% | residual activity [4]: 88% | residual activity [5]: 100% | residual activity [6]: 100% | residual activity [7]: 100% | residual activity [8]: 100% | residual activity [9]: 100% | residual activity [10]: 100% | residual activity [11]: 100% | residual activity [12]: 91% | residual activity [13]: 100% | residual activity [14]: 0% | residual activity [15]: 84% | residual activity [16]: 86% | residual activity [17]: 100% | residual activity [18]: 79% | residual activity [19]: 100% | residual activity [20]: 71% | residual activity [21]: 73% | residual activity [22]: 100% | residual activity [23]: 91% | residual activity [24]: 95% | residual activity [25]: 100% | residual activity [26]: 100% | residual activity [27]: 86% | residual activity [28]: 85% | residual activity [29]: 79% | residual activity [30]: 92% | residual activity [31]: 100% | residual activity [32]: 100% | residual activity [33]: 100% | residual activity [34]: 84% | residual activity [35]: 100%
